Values of other authors as cited in patent publication US20080311054A1, “Compositions and Methods to Counteract Oral Malodour” (GIVAUDAN SA, priority 2005, published 2008).

Tested on: microorganisms such as yeasts
Conditions: WO 99/51093

For CCCCCCCCO [octanol], the “effect (killing microorganisms such as yeasts)” value is given as “no effect”.
